The values that follow come from patent US9079929B2, “Substituted tetrahydroisoquinoline compounds as factor XIa inhibitors” (priority 2011, dated 2015).

Where a name gives a salt, the structure may show the parent alone.

human Factor XIa, sequence (P03951 whole entry, looked up): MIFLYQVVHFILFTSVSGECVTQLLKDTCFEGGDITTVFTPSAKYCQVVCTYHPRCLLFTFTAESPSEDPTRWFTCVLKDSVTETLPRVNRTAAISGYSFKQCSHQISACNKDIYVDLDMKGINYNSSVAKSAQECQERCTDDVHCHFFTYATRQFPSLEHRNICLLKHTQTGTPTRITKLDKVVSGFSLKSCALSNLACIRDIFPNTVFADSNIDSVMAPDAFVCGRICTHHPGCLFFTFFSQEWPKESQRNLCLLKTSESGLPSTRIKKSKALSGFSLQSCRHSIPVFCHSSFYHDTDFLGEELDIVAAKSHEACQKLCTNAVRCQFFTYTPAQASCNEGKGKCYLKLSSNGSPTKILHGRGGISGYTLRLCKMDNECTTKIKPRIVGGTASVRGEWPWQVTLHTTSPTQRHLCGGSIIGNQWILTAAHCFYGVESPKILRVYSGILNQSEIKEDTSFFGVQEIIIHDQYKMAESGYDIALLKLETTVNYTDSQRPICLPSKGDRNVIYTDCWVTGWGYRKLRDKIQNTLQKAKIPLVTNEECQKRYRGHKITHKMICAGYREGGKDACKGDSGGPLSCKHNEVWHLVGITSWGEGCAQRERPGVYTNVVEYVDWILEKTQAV
human Factor XIa, sequence (P03951 whole entry partner, looked up): as the sequence (P03951 whole entry, looked up) above

This assay has as its target human Factor XIa (Homo sapiens (Human), UniProt P03951). Briefly: Factor XIa enzyme inhibition assay (chromogenic substrate S-2366). Format: biochemical. The following applies: purified human Factor XIa, substrate S-2366, pH 7.4. The procedure:
The results of this assay are expressed as the inhibitory constant, Ki.
Values of Ki were determined by allowing the protease to react with the substrate in the presence of the inhibitor. Reactions were allowed to go for periods of 20-180 minutes (depending on the protease) and the velocities (rate of absorbance or fluorescence change versus time) were measured. The following relationships were used to calculate Ki values:
vs/vo=A+((B−A)/1+((IC50/(I)n))); and […]
`COCCNC(=O)c1cccc2c1CCN(C(=O)/C=C/c1cc(Cl)ccc1-n1cnnn1)C2C(=O)Nc1ccc(C(=O)O)cc1` (stereo not drawn) [Example 3, (E)-4-(2-(3-(5-Chloro-2-(1H-tetrazol-1-yl)phenyl)acryloyl)-5-(2-methoxyethylcarbamoyl)-1,2,3,4-tetrahydroisoquinoline-1-carboxamido)benzoic acid] displayed a Ki of 21.3 nM.
The value for `CS(=O)(=O)Nc1cccc2c1CCN(C(=O)/C=C/c1c(-n3cnnn3)ccc(Cl)c1F)C2C(=O)Nc1ccc(C(=O)O)cc1` (stereo not drawn) [Example 9, (E)-4-(2-(3-(3-chloro-2-fluoro-6-(1H-tetrazol-1-yl)phenyl)acryloyl)-5-(methylsulfonamido)-1,2,3,4-tetrahydroisoquinoline-1-carboxamido)benzoic acid] was less than 5 nM; that for `CCOC(=O)CCCNC(=O)c1cccc2c1CCN(C(=O)/C=C/c1c(-n3cnnn3)ccc(Cl)c1F)C2C(=O)Nc1ccc(F)cc1` (stereo not drawn) [Example 14] was 580 nM; that for `CCOC(=O)[C@H]1CCCN(C(=O)c2cccc3c2CCN(C(=O)/C=C/c2c(-n4cnnn4)ccc(Cl)c2F)C3C(=O)Nc2ccc(NC(=O)OC)cc2)C1` (stereo partly drawn) [Example 16] was 332 nM.
`CC(C)(C)OC(=O)c1ccc(NC(=O)C2c3cccc(C(=O)N4CCN(C(=O)OC(C)(C)C)CC4)c3CCN2C(=O)/C=C/c2c(-n3cnnn3)ccc(Cl)c2F)cc1` (stereo not drawn) [Example 24]: the affinity, expressed as Ki, was 170 nM.
In turn, `O=C(O)c1ccc(NC(=O)C2c3cccc(C(=O)N4CCNCC4)c3CCN2C(=O)/C=C/c2c(-n3cnnn3)ccc(Cl)c2F)cc1` (stereo not drawn) [Example 29] registered a Ki of 553 nM.
In turn, `O=C(O)c1ccc(NC(=O)C2c3cccc(C(=O)N4CCNCC4)c3CCN2C(=O)/C=C/c2c(-n3cnnn3)ccc(Cl)c2F)cc1` (stereo not drawn) [Example 30] had a Ki of less than 5 nM.
The value for `COc1ccc(-c2cccc3c2CCN(C(=O)/C=C/c2c(-n4cnnn4)ccc(Cl)c2F)C3C(=O)Nc2ccc(C(=O)O)cc2)c(Cl)c1` (stereo not drawn) [Example 47, (E)-4-(2-(3-(3-chloro-2-fluoro-6-(1H-tetrazol-1-yl)phenyl)acryloyl)-5-(2-chloro-4-methoxyphenyl)-1,2,3,4-tetrahydroisoquinoline-1-carboxamido)benzoic acid] was less than 5 nM; that for `COC(=O)Nc1ccc(-c2cccc3c2CCN(C(=O)/C=C/c2c(-n4cnnn4)ccc(Cl)c2F)[C@H]3C(=O)Nc2ccc(F)cc2)cc1` [Example 50, (R,E)-Methyl 4-(2-(3-(3-chloro-2-fluoro-6-(1H-tetrazol-1-yl)phenyl)acryloyl)-1-(4-fluorophenylcarbamoyl)-1,2,3,4-tetrahydroisoquinolin-5-yl)phenylcarbamate] was 3370 nM; that for `CNC(=O)c1ccc(-c2cccc3c2CCN(C(=O)/C=C/c2c(-n4cnnn4)ccc(Cl)c2F)C3C(=O)NCC(=O)OC)cc1` (stereo not drawn) [Example 61] was 342 nM.
The value for `CC[C@H](C)NC(=O)C1c2cccc(-c3ccc(C(=O)NC)cc3)c2CCN1C(=O)/C=C/c1c(-n2cnnn2)ccc(Cl)c1F` (stereo partly drawn) [Example 65] was 49.2 nM; that for `CNC(=O)c1ccc(-c2cccc3c2CCN(C(=O)/C=C/c2c(-n4cnnn4)ccc(Cl)c2F)C3C(=O)NCc2nccn2C)cc1` (stereo not drawn) [Example 66] was 534 nM; that for `CNC(=O)c1ccc(-c2cccc3c2CCN(C(=O)/C=C/c2c(-n4cnnn4)ccc(Cl)c2F)C3C(=O)Nc2ccc(C(=O)O)cc2)cn1` (stereo not drawn) [Example 78] was less than 5 nM.
`CNC(=O)c1ccc(-c2cccc3c2CCN(C(=O)/C=C/c2c(-n4cnnn4)ccc(Cl)c2F)C3C(=O)Nc2ccc3c(c2)CN=N3)cc1` (stereo not drawn) [Example 80] came in with a Ki of 20.1 nM.
As for `CN(C)CCNC(=O)c1ccc(-c2cccc3c2CCN(C(=O)/C=C/c2c(-n4cnnn4)ccc(Cl)c2F)C3C(=O)Nc2ccc(C(=O)OC(C)(C)C)cc2)cc1` (stereo not drawn) [Example 89], the Ki is less than 5 nM.
Molecule `CN(C)CCNC(=O)c1ccc(-c2cccc3c2CCN(C(=O)/C=C/c2c(-n4cnnn4)ccc(Cl)c2F)[C@H]3C(=O)Nc2ccc(C(=O)OCCN(C)C)cc2)cc1` [Example 93, (R,E)-2-(dimethylamino)ethyl 4-(2-(3-(3-chloro-2-fluoro-6-(1H-tetrazol-1-yl)phenyl)acryloyl)-5-(4-((2-(dimethylamino)ethyl)carbamoyl)phenyl)-1,2,3,4-tetrahydroisoquinoline-1-carboxamido)benzoate; bis-TFA salt] had a Ki of 951 nM.
Molecule `CN(C)CCNC(=O)c1ccc(-c2cccc3c2CCN(C(=O)/C=C/c2c(-n4cnnn4)ccc(Cl)c2F)[C@H]3C(=O)Nc2ccc(C(=O)OCc3ccccn3)cc2)cc1` [Example 98] displayed a Ki of 132 nM.
Then `O=C(O)c1ccc(NC(=O)C2c3cccc(OC4CCNCC4)c3CCN2C(=O)/C=C/c2c(-n3cnnn3)ccc(Cl)c2F)cc1` (stereo not drawn) [Example 108, (E)-4-(2-(3-(3-Chloro-2-fluoro-6-(1H-tetrazol-1-yl)phenyl)acryloyl)-5-(piperidin-4-yloxy)-1,2,3,4-tetrahydroisoquinoline-1-carboxamido)benzoic acid, TFA salt], with less than 5 nM; and `CC(=O)c1ccc(Cl)c(F)c1/C=C/C(=O)N1CCc2c(-c3ccc(C(N)=O)cc3)cccc2[C@@H]1C(=O)Nc1ccc(C(=O)O)cc1` [Example 120], with 291 nM.
`CN(C)CCOc1cccc2c1CCN(C(=O)/C=C/c1c(-n3cnnn3)ccc(Cl)c1F)C2C(=O)Nc1ccc(C(=O)O)cc1` (stereo not drawn) [Example 132, (E)-4-(2-(3-(3-chloro-2-fluoro-6-(1H-tetrazol-1-yl)phenyl)acryloyl)-5-(2-(dimethylamino)ethoxy)-1,2,3,4-tetrahydroisoquinoline-1-carboxamido)benzoic acid, TFA salt] gave a Ki of less than 5 nM.
As to `CC(=O)c1ccc(Cl)c(F)c1/C=C/C(=O)N1CCc2c(O)cccc2C1C(=O)Nc1ccc(C(=O)O)cc1` (stereo not drawn) [Example 146, (E)-4-(2-(3-(6-acetyl-3-chloro-2-fluorophenyl)acryloyl)-5-hydroxy-1,2,3,4-tetrahydroisoquinoline-1-carboxamido)benzoic acid], the Ki amounted to 24.8 nM.
The value for `CC(=O)c1ccc(Cl)c(F)c1/C=C/C(=O)N1CCc2c(-c3ccc(C(=O)NCCN(C)C)cc3)cccc2[C@@H]1C(=O)Nc1ccc(C(=O)O)cc1` [Example 150, (R,E)-4-(2-(3-(6-Acetyl-3-chloro-2-fluorophenyl)acryloyl)-5-(4-(2-(dimethylamino)ethylcarbamoyl)phenyl)-1,2,3,4-tetrahydroisoquinoline-1-carboxamido)benzoic acid, TFA salt] was 37 nM; that for `CCOC(=O)c1ccc(NC(=O)C2c3cccc(OCCC4CCN(C)CC4)c3CC(C)(C)N2C(=O)/C=C/c2c(-n3cnnn3)ccc(Cl)c2F)cc1` (stereo not drawn) [Example 152, (E)-ethyl 4-(2-(3-(3-chloro-2-fluoro-6-(1H-tetrazol-1-yl)phenyl)acryloyl)-3,3-dimethyl-5-(2-(1-methylpiperidin-4-yl)ethoxy)-1,2,3,4-tetrahydroisoquinoline-1-carboxamido)benzoate, TFA salt] was 100 nM.
The molecule `CCOC(=O)c1ccc(NC(=O)[C@H]2c3cccc(OCCC4CCNCC4)c3CCN2C(=O)/C=C/c2c(-n3cnnn3)ccc(Cl)c2F)cc1` [Example 160, (R,E)-ethyl 4-(2-(3-(3-chloro-2-fluoro-6-(1H-tetrazol-1-yl)phenyl)-acryloyl)-5-(2-(piperidin-4-yl)ethoxy)-1,2,3,4-tetrahydroisoquinoline-1-carboxamido)benzoate, TFA salt] came in with a Ki of 3530 nM.
For the molecule `Cn1nccc1-c1cccc2c1CCN(C(=O)/C=C/c1c(-n3cnnn3)ccc(Cl)c1F)C2C(=O)Nc1ccc(C(=O)O)cc1` (stereo not drawn) [Example 173, (E)-4-(2-(3-(3-Chloro-2-fluoro-6-(1H-tetrazol-1-yl)phenyl)acryloyl)-5-(1-methyl-1H-pyrazol-5-yl)-1,2,3,4-tetrahydroisoquinoline-1-carboxamido)benzoic acid], the Ki is less than 5 nM.
`CCOC(=O)c1ccc(NC(=O)C2c3cccc(-c4ccc(C(=O)NC)nc4)c3CCN2C(=O)/C=C/c2c(-n3cnnn3)ccc(Cl)c2F)cc1` (stereo not drawn) [Example 188] had a Ki of 3860 nM.
`CN(C)c1ccc(-c2cccc3c2CCN(C(=O)/C=C/c2c(-n4cnnn4)ccc(Cl)c2F)C3C(=O)Nc2ccc(C(=O)O)cc2)cn1` (stereo not drawn) [Example 191] displayed a Ki of less than 5 nM.

As a reminder, the Ki is a measure of affinity in units of concentration, obtained from inhibition or displacement.
